Values of other authors as cited in US20080125428A1, “Cancer Treatment Method” (priority 2004, published 2008).

Test system: tumor cells overexpressing EGFR or erbB2
Settings: Rusnak et al., 2001b, Xia et al., 2002

## CS(=O)(=O)CCNCc1ccc(-c2ccc3ncnc(Nc4ccc(OCc5cccc(F)c5)c(Cl)c4)c3c2)o1 [GW572016, N-{3-chloro-4-[(3-fluorobenzyl)oxy]phenyl}-6-[5-({[2-(methanesulphonyl)ethyl]amino}methyl)-2-furyl]-4-quinazolinamine]
  kinase inhibition in human xenograft studies: dose-dependent kinase inhibition
Human xenograft studies
  selectivity for tumor cells overexpressing EGFR or erbB2: selectively inhibits tumor cells overexpressing EGFR or erbB2
